Data from a melting point compilation (Tetko et al.; mined from patent text by program, amines drawn as free bases though some values may be those of a salt).

First: Cc1c(NC(=O)CC(C)(C)C)cc2c(c1C)O[C@@H](C)[C@H]2c1ccc(C(C)C)cc1 (relative stereo)
Second: Cc1c(Br)c(O)c(Cc2ccc(C(C)C)cc2)c(C)c1N(Cc1ccccc1)C(=O)CC(C)(C)C
The melting point of the first is lower: 94 to 95 °C for the first, 107 to 108 °C for the second.

Compared with `CNc1c(C(=O)OC)cccc1[N+](=O)[O-]`, `CCNc1cc(OC)c(C(F)(F)F)cc1[N+](=O)[O-]` is higher in melting point: 138 to 140 °C for the first, 140 to 142 °C for the second.

Compared with `CCOC(=O)C1(C)C(=O)Nc2cc3[nH]c(-c4ccccc4)nc3cc21` (stereo not given), `CC(C)n1nc(-c2sc(NC(=O)C3CCCCC3)nc2-c2ccccc2)ccc1=O` is higher in melting point: 178 to 182 °C for the first, 234 to 236 °C for the second.

First: Cc1cc(-n2ccnc2)c2cccc(OCc3c(Cl)ccc(S(=O)(=O)N4CCC[C@H]4C(=O)NCC4CCN(CCCCO)CC4)c3Cl)c2n1
Second: COc1cc(N)c(Cl)cc1C(=O)NCC1CCN(CCCCCCC(=O)c2ccccc2)CC1
The melting point of the first is lower: 112 °C for the first, 128 to 130 °C for the second.

First: CC1(NCC(O)c2ccc3nnnn3c2)CC1 (stereo not given)
Second: CCOC(=O)c1c(O)c2cccc3c2n(c1=O)CCO3
The melting point of the first is lower: 72 to 73 °C for the first, 160 to 164 °C for the second.

Compared with `O=C1c2ccccc2C(=O)N1OC/C=C/C=C/c1ccc(F)cc1`, `O=C1CC(Br)C(=O)N1c1ccc(F)cc1` (stereo not given) is lower in melting point: 155 to 157 °C for the first, 154 °C for the second.

First: O=C1N(Cc2sccc2Cl)c2ccccc2C12COc1cc3c(cc12)OCO3 (stereo not given)
Second: Nc1ccc(Oc2ccccc2)cc1SC(c1ccc2c(c1)OCO2)C(O)C(=O)O (stereo not given)
The melting point of the first is higher: 161 to 163 °C for the first, 158 to 159 °C for the second.

Compared with `O=C(O)c1ccc(NCCCCCCCCCCCOc2ccccc2)cc1`, `COC(=O)c1cc(OCCCCCCCCCCCCOc2ccccc2)ccc1OCc1ccccc1` is lower in melting point: 117 to 119 °C for the first, 46 to 48 °C for the second.

Compared with `O=C(O)CN1CC(=O)N(Cc2ccc(Cl)c([N+](=O)[O-])c2)C1=O`, `O=C(O)CN1C(=O)C(=Cc2ccc(Cl)cc2)SC1=S` is higher in melting point: 167 to 168 °C for the first, 272 to 274 °C for the second.

Compared with `O=c1c2c(Cc3ccc(C(F)(F)F)cc3)n[nH]c2c2cccnc2n1-c1ccccc1`, `CC(C)(C)NC(=O)c1ccc(S(=O)(=O)N2C(=O)C(C)(c3ccccc3Cl)c3cc(OCC(F)(F)F)ccc32)cc1` (stereo not given) is lower in melting point: 216 to 219 °C for the first, 134 °C for the second.

First: O=c1[nH]c(-c2ccc(CCCCN3CCN(c4nsc5ccccc45)CC3)cc2)cs1
Second: CCCCCN1CCC(n2nc(-c3c(-c4ccccc4)nn4ccccc34)ccc2=O)CC1
The melting point of the first is higher: 140 to 145 °C for the first, 106 °C for the second.

First: CCc1cn2ccccc2c1S(=O)(=O)c1ccc(O)c(C)c1
Second: CCCNC(=O)C(CC)Cc1ccc2c(c1)c(Cc1ccc(C(=O)NS(=O)(=O)c3ccccc3C)cc1OC)cn2CCC (stereo not given)
The melting point of the first is higher: 214 °C for the first, 93 to 105 °C for the second.

First: COc1ccc(O)cc1/C=C/C(=O)CC(=O)/C=C/c1cc(O)ccc1Br
Second: CCc1nc2cc(/C=C/C(=O)NO)ccc2c(=O)n1CCc1ccc(OC)cc1
The melting point of the first is lower: 90 to 96 °C for the first, 215 to 217 °C for the second.

First: CC(Oc1ccc2nc(-c3ccccc3OC(N)=O)sc2c1)c1c(F)ccc(Cl)c1Cl (stereo not given)
Second: O=C(Nc1ccc(F)cc1)Nc1nc(Nc2ccc(Cl)cc2)sc1C(=O)c1ccc(Cl)cc1Cl
The melting point of the first is lower: 210 to 220 °C for the first, > 280 °C for the second.

First: COc1cc(C)c(C(=O)c2c(Cl)cccc2Cl)cc1OCC1CC1
Second: CCONC(=O)c1c(Cl)ccc2cc(Cl)cnc12
The melting point of the first is higher: 152 °C for the first, 140 °C for the second.

First: O=C(O)c1cn(C2CC2)c2nc(N3CCCC(n4ccnn4)C3)c(F)cc2c1=O (stereo not given)
Second: Cc1cc(CO)nc(N2CCN(c3ccnc([C@@H](C)O)n3)CC2)n1
The melting point of the first is higher: 251 to 254 °C for the first, 139 to 140 °C for the second.

Compared with `COc1ccc(C(C#N)Cc2c(Cl)cncc2Cl)c2c1OC(C)(C)C2` (stereo not given), `Cc1ccc(Cl)c(C)c1NC(=O)N=C1NC(=O)CN1C` is lower in melting point: 158 to 162 °C for the first, 140 to 142 °C for the second.

First: CCc1nc(OC)c(NC(=O)N2CCN(c3cccc(F)c3)CC2)cc1C(=O)NC(C)C(=O)Nc1cc(CO)cc(Nc2c3ccccc3nc3ccccc23)c1 (stereo not given)
Second: CCOc1cc(N(CC)CC)ccc1C1(N(c2ccccc2)c2ccc(NC(C)=O)cc2)OC(=O)c2ccccc21 (stereo not given)
The melting point of the first is higher: 208 to 210 °C for the first, 126 to 131 °C for the second.

Compared with `CCOC(=O)c1nnc(-c2ccc(Cl)cc2)o1`, `CCOC(=O)NC=C(C(=O)OCC)c1ccc(Cl)cc1` is lower in melting point: 117 to 118 °C for the first, 72 °C for the second.

First: CN(CCOc1ccc(NS(C)(=O)=O)cc1)CCc1ccc(N)cc1
Second: CCCCNC(=O)NS(=O)(=O)c1ccc(CCNC(=O)N2Cc3ccc(C)cc3C2=O)cc1
The melting point of the first is lower: 155 to 157 °C for the first, 169 to 171 °C for the second.

First: CCOC(=O)C1=C2COCCN2C(C)=C(C(=O)OC)C1c1ccccc1Cl (stereo not given)
Second: CCC(=O)Oc1cc(OC)cc(OC)c1C(=O)C=Cc1ccco1
The melting point of the first is higher: 141 to 143 °C for the first, 93.6 °C for the second.

First: CC(O)c1cc2cc(O)c(Cl)c(Cl)c2s1 (stereo not given)
Second: OC(c1ccc(Cl)cc1)c1ccccc1Cl (stereo not given)
The melting point of the first is higher: 173 to 174 °C for the first, 68 to 70 °C for the second.

First: CC(C)c1nc(-n2cnc3ccccc32)sc1/C=C/C(=O)O
Second: CC(C)COc1ccc(C=CC(=O)O)cc1
The melting point of the first is higher: 262 to 264 °C for the first, 161 to 164 °C for the second.

First: Cc1cc(C)n(-c2cncc(Nc3ccc(Cl)cc3)n2)n1
Second: Cc1cccc(NC(=O)c2cc(C#N)cc(C)n2)n1
The melting point of the first is lower: 157 to 159 °C for the first, 244 °C for the second.

First: CN1Cc2c(C#CC(C)(C)C)ncn2-c2ccccc2C1=O
Second: CCN1c2ncccc2C(C#N)=Nc2c(C)cc(C)nc21
The melting point of the first is lower: 148 to 150 °C for the first, 154 to 155 °C for the second.

Compared with `CN1C(=O)CON(C(=O)OCc2ccccc2)C1c1ccccc1` (stereo not given), `CCC(C)C(NC(c1ccccc1)c1ccccc1)P(O)O` (stereo not given) is higher in melting point: 82 to 83 °C for the first, 174 to 176 °C for the second.

Compared with `O=C1OCCC12Sc1cc(Cl)ccc1C2=O` (stereo not given), `O=C1OC(O)(c2ccccc2)C2(Cl)CCCCC12` (stereo not given) is lower in melting point: 157 to 158 °C for the first, 89 to 92 °C for the second.

First: CCOCc1nc2c(N)nc3cc(-c4cncc(CO)c4)ccc3c2n1CC(C)C
Second: CCc1cnc(-c2ccc(N=C=S)cc2)nc1
The melting point of the first is higher: 211 to 212 °C for the first, 114 °C for the second.

First: O=C(O)c1ncc2[nH]c3ccccc3c2n1
Second: CCCc1c(OCc2nnn[nH]2)ccc(C(=O)c2ccccc2O)c1O
The melting point of the first is higher: 187 to 189 °C for the first, 186 to 187 °C for the second.

First: Cc1ccccc1C1CCN(C2CCCCC2O)CC1 (single isomer, unassigned; (-))
Second: O=C(C=Cc1cccnc1)NCCCCC1CCN(Cc2ccccc2)CC1
The melting point of the first is higher: 116 to 118 °C for the first, 88 to 90 °C for the second.

First: c1cc2cc([C@@H]3CO3)ccc2s1
Second: Cc1ccccc1-c1nsc(SN)n1
The melting point of the first is lower: 72 to 76 °C for the first, 110 to 112 °C for the second.

First: O=Cc1cc2c(cc1C=O)[C@H](CO)OC2=O
Second: Cc1cc(Oc2c(Cl)cc(C(F)(F)F)cc2Cl)nn1C(=O)OC(C)(C)C
The melting point of the first is lower: 144 to 145 °C for the first, 159 to 161 °C for the second.

First: COc1cc(C2CCN(C[C@@H](O)CO)CC2)ccc1-c1nc2c(N[C@H]3[C@@H](C(N)=O)[C@@H]4C=C[C@H]3C4)c(Cl)cnc2[nH]1
Second: C=CCc1ccccc1OCC(O)CNCCc1ccc(NC2CCN(S(=O)(=O)c3ccc(NC(=O)NCCCCCC)cc3)CC2)cc1 (stereo not given)
The melting point of the first is higher: 209 to 211 °C for the first, 68 to 70 °C for the second.

Compared with `O=P(O)(O)Cc1ccccc1C(F)(F)F`, `CCCC[C@H](NC(=O)[C@H](CC(C)C)NC(=O)OCc1ccccc1)C(=O)CCCc1ccco1` is lower in melting point: 190 to 192 °C for the first, 62 to 64 °C for the second.

First: Cc1cc(CC#N)cc(CC#N)c1
Second: CC1(N)CN=CC=C1N (stereo not given)
The melting point of the first is lower: 75 to 78 °C for the first, 163 to 165 °C for the second.
